The values that follow come from patent US12391737B2, “Soluble NPY2 receptor agonists” (Boehringer Ingelheim International GmbH, priority 2020, dated 2025).

Data set [1] addresses T1, human NPY1 receptor (hY1R) (Homo sapiens, UniProt P25929).
T1 construct: expressed in transfected cells; host or cells: CHO-K1
T1 sequence (P25929 1-384): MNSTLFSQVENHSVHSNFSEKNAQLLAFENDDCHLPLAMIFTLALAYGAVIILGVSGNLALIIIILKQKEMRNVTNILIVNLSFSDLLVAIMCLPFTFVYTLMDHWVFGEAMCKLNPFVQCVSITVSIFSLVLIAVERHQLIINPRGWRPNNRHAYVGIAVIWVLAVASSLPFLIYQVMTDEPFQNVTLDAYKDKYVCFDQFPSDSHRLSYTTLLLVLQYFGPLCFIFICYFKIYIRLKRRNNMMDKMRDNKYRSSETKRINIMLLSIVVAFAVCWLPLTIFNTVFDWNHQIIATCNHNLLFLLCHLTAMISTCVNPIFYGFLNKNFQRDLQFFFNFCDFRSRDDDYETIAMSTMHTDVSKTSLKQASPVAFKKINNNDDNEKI
Put plainly: HTRF cAMP Gi assay, hY1R. Type of data set: cell-based. Conditions: CHO-K1 cells.
Experimental: (§1) Briefly, the production of intracellular cAMP will generate a competition between unlabeled cAMP and exogenously added d2-cAMP for anti-cAMP antibodies conjugated to cryptate. CHO-K1 cells stably expressing the human NPY1, NPY2, NPY4 and NPY5 receptors were used with the cells brought to life from a frozen stock immediately before assay performance. 2000 cells per well were applied for all four NPY receptor subtype assays. A 384-well format was used applying a total volume of 20 μl using 5 μl cells, 2.5 μl peptide agonist, 2.5 μl forskolin and 5 μl of each of the fluorophores. […] Concentration-response evaluation of compounds was performed with 11 concentrations of agonist peptides (covering 3 decades). EC50 values were calculated by nonlinear regression using sigmoid concentration-response with variable slope.

The target in data set [2] is T2, human NPY2 receptor (hY2R) (Homo sapiens, UniProt P49146).
T2 sequence (P49146 1-381): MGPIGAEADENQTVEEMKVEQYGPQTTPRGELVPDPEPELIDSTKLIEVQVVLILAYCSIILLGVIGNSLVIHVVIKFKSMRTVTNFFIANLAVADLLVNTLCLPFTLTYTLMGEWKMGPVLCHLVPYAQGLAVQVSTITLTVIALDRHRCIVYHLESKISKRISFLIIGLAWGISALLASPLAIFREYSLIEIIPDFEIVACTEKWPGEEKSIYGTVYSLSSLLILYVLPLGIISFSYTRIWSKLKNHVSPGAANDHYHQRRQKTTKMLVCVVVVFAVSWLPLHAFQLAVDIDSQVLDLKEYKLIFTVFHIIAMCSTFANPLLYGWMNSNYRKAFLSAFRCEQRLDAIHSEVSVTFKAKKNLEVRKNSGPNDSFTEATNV
Nature of the data set: HTRF cAMP Gi assay, hY2R. (TR-FRET usually uses a lanthanide donor and a delayed reading to cut background.)

Data set [3] addresses T3, Human Neuropeptide Y2 Receptor (Homo sapiens, UniProt P49146).
T3 construct: purchased CHEMICON HTS066M
T3 sequence (P49146 1-381): T2 sequence (P49146 1-381)
Nature of the data set: Radioligand binding competition assay (RLB). Conditions: Table 3, 125I-PYY(1-36) competition; read-out: Ki. In short, it runs like this:
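Filtration binding assay on human Y2 receptor membrane preparation, 0.5 μg protein per well, in 50 mM HEPES pH 7.4 containing 5 mM MgCl2, 1 mM CaCl2 and 0.2% ovalbumin. Plates shake 2 h at room temperature before harvest and scintillation counting.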

For data set [4], the target named is T4, human NPY4 receptor (hY4R) (Homo sapiens, UniProt P50391).
T4 construct: expressed in transfected cells; host or cells: CHO-K1
T4 sequence (P50391 whole entry): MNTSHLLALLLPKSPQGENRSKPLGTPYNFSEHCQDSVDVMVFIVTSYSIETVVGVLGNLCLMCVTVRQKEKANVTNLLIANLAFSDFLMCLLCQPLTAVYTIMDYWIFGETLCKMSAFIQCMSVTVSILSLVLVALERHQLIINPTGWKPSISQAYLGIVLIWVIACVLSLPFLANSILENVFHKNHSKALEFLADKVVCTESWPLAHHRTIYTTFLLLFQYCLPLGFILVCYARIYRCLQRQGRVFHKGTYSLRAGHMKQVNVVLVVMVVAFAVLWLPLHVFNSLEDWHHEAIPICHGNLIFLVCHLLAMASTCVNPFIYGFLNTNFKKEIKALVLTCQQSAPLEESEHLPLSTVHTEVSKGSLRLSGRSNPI
Put plainly: HTRF cAMP Gi assay, hY4R. Type of data set: cell-based. Conditions: CHO-K1 cells.
Experimental: as §1

Data set [5] concerns the target T5, human NPY5 receptor (hY5R) (Homo sapiens, UniProt Q15761).
T5 sequence (Q15761 1-445): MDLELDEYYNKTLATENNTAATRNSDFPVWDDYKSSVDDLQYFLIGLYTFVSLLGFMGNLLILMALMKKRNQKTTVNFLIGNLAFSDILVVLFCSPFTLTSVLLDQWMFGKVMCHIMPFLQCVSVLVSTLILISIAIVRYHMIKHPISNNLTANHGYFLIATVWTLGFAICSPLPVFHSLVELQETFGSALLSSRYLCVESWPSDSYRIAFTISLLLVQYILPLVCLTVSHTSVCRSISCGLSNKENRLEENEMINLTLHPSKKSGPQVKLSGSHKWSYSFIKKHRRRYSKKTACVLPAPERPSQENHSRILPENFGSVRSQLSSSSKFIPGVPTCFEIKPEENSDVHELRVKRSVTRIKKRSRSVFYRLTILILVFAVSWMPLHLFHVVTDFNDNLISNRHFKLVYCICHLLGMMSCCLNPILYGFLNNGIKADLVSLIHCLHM
Put plainly: HTRF cAMP Gi assay, hY5R.

The nature of another data set: Solubility determination. Conditions: for Sol6: pH 6; for Sol7: pH 7. The method in brief:
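Sample: TFA-salt peptide at 10 mg/ml target in 0.1 M Na diphosphate, pH 6.4 or 7.0, shaken 2 h RT, filtered, diluted to 1 mg/ml.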

Bounds are passed on as bounds.

What is called EC50 is the concentration needed to bring the measured effect to its halfway point. What is called Ki is a measure of affinity in units of concentration, obtained from inhibition or displacement. Take `CC(C)CC(=O)N[C@@H](C)C(=O)N1CCC[C@H]1C(=O)N[C@@H](CCC(=O)O)C(=O)N[C@@H](CCCCNC(=O)CCCCCNC(=O)CC[C@H](NC(=O)CCCCCCCCCCCCCCCCC(=O)O)C(=O)O)C(=O)N1CCC[C@H]1C(=O)N[C@@H](CCC(=O)O)C(=O)N[C@@H](CCC(=O)O)C(=O)N[C@@H](CC(=O)O)C(=O)N[C@@H](C)C(=O)N[C@@H](CCC(=O)O)C(=O)N1CCC[C@H]1C(=O)N[C@@H](CCC(=O)O)C(=O)N[C@@H](CCC(=O)O)C(=O)N[C@H](C(=O)N[C@@H](CCC(N)=O)C(=O)N[C@@H](CCCNC(=N)N)C(=O)N[C@@H](Cc1ccc(O)cc1)C(=O)N[C@@H](Cc1ccc(O)cc1)C(=O)N[C@H](C(=O)N[C@@H](CO)C(=O)N[C@@H](CC(C)C)C(=O)N[C@@H](CCCNC(=N)N)C(=O)N[C@@H](Cc1c[nH]cn1)C(=O)N[C@@H](Cc1ccc(O)cc1)C(=O)N[C@@H](Cc1ccc(O)cc1)C(=O)N[C@@H](CC(N)=O)C(=O)N[C@@H](Cc1c[nH]c2ccccc12)C(=O)N[C@@H](CC(C)C)C(=O)N[C@H](C(=O)N[C@@H](CCCNC(=N)N)C(=O)N[C@@H](CCC(N)=O)C(=O)N[C@@H](CCCNC(=N)N)C(=O)N[C@@H](Cc1ccc(O)cc1)C(N)=O)[C@@H](C)O)C(C)C)C(C)C` [Compound 53, N{alpha-4}-(3-methylbutanoyl)-N{epsilon-7}-(6-[(4S)-4-carboxy-4-(17-carboxyheptadecanamido)butanamido]hexanoyl)-[4A,7K,9E,13E,17V,18Q,22V,28Y,30W,31L]-hPYY(4-36)]: the EC50 is above 5000 nM in data set [1], 0.352 nM in data set [2], above 5000 nM in data set [4] and above 5000 nM in data set [5]. In data set [3], the inhibition constant (Ki) came to 3.07 nM. The “Sol6” value in the data set “Solubility determination” worked out at 8.7 mg/mL. The “Sol7” value in the data set “Solubility determination” amounted to 9.6 mg/mL.

On to `CC[C@H](C)[C@H](NC(=O)[C@H](Cc1ccc(O)cc1)NC(=O)[C@H](Cc1ccc(O)cc1)NC(=O)[C@H](CCCNC(=N)N)NC(=O)[C@H](CCC(N)=O)NC(=O)[C@@H](NC(=O)[C@H](CCC(=O)O)NC(=O)[C@H](CCC(=O)O)NC(=O)[C@@H]1CCCN1C(=O)[C@H](CO)NC(=O)[C@H](C)NC(=O)[C@H](CC(=O)O)NC(=O)[C@H](CCC(=O)O)NC(=O)[C@H](CCC(=O)O)NC(=O)[C@@H]1CCCN1C(=O)[C@H](CCCCNC(=O)CCCCCNC(=O)CC[C@H](NC(=O)CCCCCCCCCCCCCCCCC(=O)O)C(=O)O)NC(=O)[C@H](C)NC(=O)[C@@H]1CCCN1C(=O)[C@H](C)NC(=O)CC(C)C)[C@@H](C)CC)C(=O)N[C@@H](CO)C(=O)N[C@@H](CC(C)C)C(=O)N[C@@H](CCCNC(=N)N)C(=O)N[C@@H](Cc1c[nH]cn1)C(=O)N[C@@H](Cc1ccc(O)cc1)C(=O)N[C@@H](Cc1ccc(O)cc1)C(=O)N[C@@H](CC(N)=O)C(=O)N[C@@H](Cc1c[nH]c2ccccc12)C(=O)N[C@@H](CC(C)C)C(=O)N[C@H](C(=O)N[C@@H](CCCNC(=N)N)C(=O)N[C@@H](CCC(N)=O)C(=O)N[C@@H](CCCNC(=N)N)C(=O)N[C@@H](Cc1ccc(O)cc1)C(N)=O)[C@@H](C)O` [Compound 195, N{alpha-4}-(3-methylbutanoyl)-N{epsilon-7}-(6-[(4S)-4-carboxy-4-(17-carboxyheptadecanamido)butanamido]hexanoyl)-[4A,6A,7K,9E,17I,18Q,22I,28Y,30W,31L]-hPYY(4-36)], for which the EC50 was above 5000 nM in data set [1], 0.197 nM in data set [2], above 5000 nM in data set [4] and above 5000 nM in data set [5]. The Ki in data set [3] stood at 0.78 nM. The “Sol6” value in “Solubility determination” was 8.2 mg/mL. Further, the “Sol7” value in the data set “Solubility determination” amounted to 8.2 mg/mL.
